Data as given in patent publication US9353107B2 (Aurigene Discovery Technologies Limited, priority 2012, dated 2016).
Structures can show the parent of a compound that is named as a salt.

Biological target: T1, recombinant human ALK enzyme (ALK WT) (Homo sapiens, UniProt Q9UM73)
T1 construct: purchased Carna Biosciences 08-518
Test: ALK WT cell free enzymatic assay (TR-FRET)
Format: biochemical
Settings: 1 μM ATP; for IC50: 10 point dose response; for inhibition at 0.1 µM: compound at 100 nM; for inhibition at 0.1 µM / inhibition at 1 µM: 30 min pre-incubation; for inhibition at 1 µM: compound at 1 μM
Method in brief: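 Recombinant human ALK with 40 nM Ultra Light Poly GT, 1 μM ATP and Eu anti-phosphotyrosine antibody, 1% DMSO, pH 7.1 HEPES; 30 min enzyme-compound pre-incubation, then 30 min reaction. TR-FRET 665/615 ratio; percent inhibition at 100 nM and 1 μM, IC50 from 10-point sigmoidal fit.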

T1 sequence (Q9UM73 1058-1620 limits assumed): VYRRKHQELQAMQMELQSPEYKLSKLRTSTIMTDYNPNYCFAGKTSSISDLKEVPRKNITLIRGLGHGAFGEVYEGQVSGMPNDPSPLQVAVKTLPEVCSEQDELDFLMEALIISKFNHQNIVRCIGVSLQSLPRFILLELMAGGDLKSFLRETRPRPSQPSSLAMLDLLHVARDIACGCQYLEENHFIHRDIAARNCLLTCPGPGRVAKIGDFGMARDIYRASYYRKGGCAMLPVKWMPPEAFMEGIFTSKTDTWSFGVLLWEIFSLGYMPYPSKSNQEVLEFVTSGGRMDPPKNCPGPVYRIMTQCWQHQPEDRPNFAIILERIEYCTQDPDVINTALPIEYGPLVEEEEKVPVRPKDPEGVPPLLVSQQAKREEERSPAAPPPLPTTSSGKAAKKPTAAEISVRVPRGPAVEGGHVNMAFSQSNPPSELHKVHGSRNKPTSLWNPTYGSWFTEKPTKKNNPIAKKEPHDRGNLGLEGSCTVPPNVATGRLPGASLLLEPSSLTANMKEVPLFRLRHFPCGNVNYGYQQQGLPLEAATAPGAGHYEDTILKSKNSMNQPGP

Row | IC50 | inhibition at 0.1 µM | inhibition at 1 µM | SMILES
1 | < 50 nM | 98% | 100% | Cc1nn(Cc2cccc(F)c2)c(C)c1-c1c[nH]c2ncc(-c3ccc(C4CCNCC4)cc3)cc12 [Example 92, 3-(1-(3-fluorobenzyl)-3,5-dimethyl-1H-pyrazol-4-yl)-5-(4-(piperidin-4-yl)phenyl)-1H-pyrrolo[2,3-b]pyridine]
2 | < 50 nM | 98% | 100% | Cc1nn(Cc2cccc(F)c2)c(C)c1-c1c[nH]c2ncc(-c3cccc(NC4CCNCC4)c3)cc12 [Example 94, N-(3-(3-(1-(3-fluorobenzyl)-3,5-dimethyl-1H-pyrazol-4-yl)-1H-pyrrolo[2,3-b]pyridin-5-yl)phenyl)piperidin-4-amine]
3 | 50 to 250 nM | 83% | 99% | c1ccc(CCn2cc(-c3c[nH]c4ncc(-c5cccc(NC6CCNCC6)c5)cc34)cn2)cc1 [Example 95, N-(3-(3-(1-phenethyl-1H-pyrazol-4-yl)-1H-pyrrolo[2,3-b]pyridin-5-yl)phenyl)piperidin-4-amine]
4 | < 50 nM | 70% | 100% | Cc1nn(Cc2cccc(F)c2)c(C)c1-c1c[nH]c2ncc(-c3cccc(OC4CCNCC4)c3)cc12 [Example 96, 3-(1-(3-fluorobenzyl)-3,5-dimethyl-1H-pyrazol-4-yl)-5-(3-(piperidin-4-yloxy)phenyl)-1H-pyrrolo[2,3-b]pyridine]
5 | < 50 nM | 76% | 98% | c1ccc(CCn2cc(-c3c[nH]c4ncc(-c5cccc(OC6CCNCC6)c5)cc34)cn2)cc1 [Example 97, 3-(1-phenethyl-1H-pyrazol-4-yl)-5-(3-(piperidin-4-yloxy)phenyl)-1H-pyrrolo[2,3-b]pyridine]
6 | 50 to 250 nM | 24% | 95% | c1ccc(CCn2cc(-c3c[nH]c4ncc(-c5cccc(CC6CCNCC6)c5)cc34)cn2)cc1 [Example 98, 3-(1-phenethyl-1H-pyrazol-4-yl)-5-(3-(piperidin-4-ylmethyl)phenyl)-1H-pyrrolo[2,3-b]pyridine]
7 | < 50 nM | 89% | 99% | Cc1nn(Cc2cccc(F)c2)c(C)c1-c1c[nH]c2ncc(-c3cccc(CC4CCNCC4)c3)cc12 [Example 99, 3-(1-(3-fluorobenzyl)-3,5-dimethyl-1H-pyrazol-4-yl)-5-(3-(piperidin-4-ylmethyl)phenyl)-1H-pyrrolo[2,3-b]pyridine]
8 | < 50 nM | 99% | 100% | CS(=O)(=O)Nc1cc(-c2cnc3[nH]cc(-c4cnn(CCc5ccccc5)c4)c3c2)ccc1N1CCNCC1 [Example 107, N-(5-(3-(1-phenethyl-1H-pyrazol-4-yl)-1H-pyrrolo[2,3-b]pyridin-5-yl)-2-(piperazin-1-yl)phenyl) methanesulfonamide hydrochloride]
9 | – | 90% | 100% | COc1cc(-c2cnc3[nH]cc(-c4cnn(Cc5cccc(F)c5)c4)c3c2)ccc1N1CCN(C[C@H](C)O)CC1 [Example 112, (S)-1-(4-(4-(3-(1-(3-fluorobenzyl)-1H-pyrazol-4-yl)-1H-pyrrolo[2,3-b]pyridin-5-yl)-2-methoxyphenyl)piperazin-1-yl)propan-2-ol]
10 | < 50 nM | 90% | 97% | CS(=O)(=O)Nc1cc(-c2cnc3[nH]cc(-c4ccn(Cc5cc(F)cc(F)c5)n4)c3c2)ccc1N1CCNCC1 [Example 113, N-(5-(3-(1-(3,5-difluorobenzyl)-1H-pyrazol-3-yl)-1H-pyrrolo[2,3-b]pyridin-5-yl)-2-(piperazin-1-yl)phenyl)methanesulfonamide]
11 | 50 to 250 nM | 68% | 97% | COc1cc(N2CCN(C[C@H](C)O)CC2)ccc1-c1cnc2[nH]cc(-c3cnn(Cc4cccc(F)c4)c3)c2c1 [Example 116, (S)-1-(4-(4-(3-(1-(3-fluorobenzyl)-1H-pyrazol-4-yl)-1H-pyrrolo[2,3-b]pyridin-5-yl)-3-methoxyphenyl)piperazin-1-yl)propan-2-ol]

The remaining lines, values behind:

Row | SMILES | IC50 | inhibition at 0.1 µM | inhibition at 1 µM
12 | c1ccc(Cn2cc(-c3c[nH]c4ncc(-c5ccc(C6CCNCC6)cc5)cc34)cn2)nc1 [Example 93, 5-(4-(piperidin-4-yl)phenyl)-3-(1-(pyridin-2-ylmethyl)-1H-pyrazol-4-yl)-1H-pyrrolo[2,3-b]pyridine] | < 50 nM | 79% | 97%
13 | Fc1cccc(Cn2cc(-c3c[nH]c4ncc(-c5ccc(NC6CCNCC6)cc5)cc34)cn2)c1 [Example 100, N-(4-(3-(1-(3-fluorobenzyl)-1H-pyrazol-4-yl)-1H-pyrrolo[2,3-b]pyridin-5-yl)phenyl)piperidin-4-amine] | < 50 nM | 100% | 100%
14 | Cc1nn(Cc2cccc(F)c2)c(C)c1-c1c[nH]c2ncc(-c3ccc(NC4CCNCC4)cc3)cc12 [Example 101, N-(4-(3-(1-(3-fluorobenzyl)-3,5-dimethyl-1H-pyrazol-4-yl)-1H-pyrrolo[2,3-b]pyridin-5-yl)phenyl)piperidin-4-amine] | < 50 nM | 99% | 100%
15 | Fc1cccc(Cn2cc(-c3c[nH]c4ncc(-c5cccc(CC6CCNCC6)c5)cc34)cn2)c1 [Example 102, 3-(1-(3-fluorobenzyl)-1H-pyrazol-4-yl)-5-(3-(piperidin-4-ylmethyl)phenyl)-1H-pyrrolo[2,3-b]pyridine] | < 50 nM | 91% | 100%
16 | C[C@H](O)CN1CCC(c2ccc(-c3cnc4[nH]cc(-c5cnn(Cc6cccc(F)c6)c5)c4c3)cn2)CC1 [Example 102A, (S)-1-(4-(5-(3-(1-(3-fluorobenzyl)-1H-pyrazol-4-yl)-1H-pyrrolo[2,3-b]pyridin-5-yl)pyridin-2-yl)piperidin-1-yl)propan-2-ol] | < 50 nM | 91% | 94%
17 | NC(=O)CN1CCN(c2ccc(-c3cnc4[nH]cc(-c5cnn(Cc6cccc(F)c6)c5)c4c3)cc2)CC1 [Example 103, 2-(4-(4-(3-(1-(3-fluorobenzyl)-1H-pyrazol-4-yl)-1H-pyrrolo[2,3-b]pyridin-5-yl)phenyl)piperazin-1-yl)acetamide] | < 50 nM | 95% | 100%
18 | C[C@H](O)CN1CCN(c2ccc(-c3cnc4[nH]cc(-c5cnn(Cc6cccc(F)c6)c5)c4c3)cc2)CC1 [Example 104, (S)-1-(4-(4-(3-(1-(3-fluorobenzyl)-1H-pyrazol-4-yl)-1H-pyrrolo[2,3-b]pyridin-5-yl)phenyl)piperazin-1-yl)propan-2-ol] | < 50 nM | 98% | 100%
19 | Nc1cc(-c2cnc3[nH]cc(-c4cnn(Cc5cccc(F)c5)c4)c3c2)ccc1N1CCNCC1 [Example 105, 5-(3-(1-(3-fluorobenzyl)-1H-pyrazol-4-yl)-1H-pyrrolo[2,3-b]pyridin-5-yl)-2-(piperazin-1-yl) aniline] | < 50 nM | 98% | 100%
20 | CS(=O)(=O)Nc1cc(-c2cnc3[nH]cc(-c4cnn(Cc5cccc(F)c5)c4)c3c2)ccc1N1CCNCC1 [Example 106, N-(5-(3-(1-(3-fluorobenzyl)-1H-pyrazol-4-yl)-1H-pyrrolo[2,3-b]pyridin-5-yl)-2-(piperazin-1-yl)phenyl)methanesulfonamide hydrochloride] | < 50 nM | 97% | 100%
21 | NC(=O)N1CCN(c2ccc(-c3cnc4[nH]cc(-c5cnn(Cc6cccc(F)c6)c5)c4c3)cc2)CC1 [Example 108, 4-(4-(3-(1-(3-fluorobenzyl)-1H-pyrazol-4-yl)-1H-pyrrolo[2,3-b]pyridin-5-yl)phenyl)piperazine-1-carboxamide] | < 50 nM | 97% | 100%
22 | CN1CCN(c2ccc(-c3cnc4[nH]cc(-c5cnn(CCc6ccccc6)c5)c4c3)cc2)CC1 [Example 109, 5-(4-(4-methylpiperazin-1-yl)phenyl)-3-(1-phenethyl-1H-pyrazol-4-yl)-1H-pyrrolo[2,3-b]pyridine] | – | 76% | 100%
23 | CS(=O)(=O)Nc1cc(-c2cnc3[nH]cc(-c4cnn(Cc5cccc(F)c5)c4)c3c2)ccc1N1CCN(CC(N)=O)CC1 [Example 110, 2-(4-(4-(3-(1-(3-fluorobenzyl)-1H-pyrazol-4-yl)-1H-pyrrolo[2,3-b]pyridin-5-yl)-2-(methylsulfonamido)phenyl)piperazin-1-yl)acetamide] | < 50 nM | 94% | 98%
24 | Fc1cc(F)cc(Cn2ccc(-c3c[nH]c4ncc(-c5ccc(N6CCNCC6)cc5)cc34)n2)c1 [Example 111, 3-(1-(3,5-difluorobenzyl)-1H-pyrazol-3-yl)-5-(4-(piperazin-1-yl)phenyl)-1H-pyrrolo[2,3-b]pyridine] | < 50 nM | 82% | 100%
25 | C[C@H](O)CN1CCN(c2ccc(-c3cnc4[nH]cc(-c5cnn(Cc6cccc(F)c6)c5)c4c3)cc2F)CC1 [Example 114, (S)-1-(4-(2-fluoro-4-(3-(1-(3-fluorobenzyl)-1H-pyrazol-4-yl)-1H-pyrrolo[2,3-b]pyridin-5-yl)phenyl)piperazin-1-yl)propan-2-ol] | – | 92% | 99%
26 | Cc1cc(-c2cnc3[nH]cc(-c4cnn(Cc5cccc(F)c5)c4)c3c2)ccc1N1CCN(C[C@H](C)O)CC1 [Example 115, (S)-1-(4-(4-(3-(1-(3-fluorobenzyl)-1H-pyrazol-4-yl)-1H-pyrrolo[2,3-b]pyridin-5-yl)-2-methylphenyl)piperazin-1-yl)propan-2-ol] | – | 94% | 100%
